This is an account of results in US8299056B2 (Signal Pharmaceuticals, LLC, priority 2008, dated 2012).

The target in one experiment is T1, Syk (Homo sapiens, UniProt P43405).
T1 construct: purchased Carna Biosciences
Description: Syk HTRF assay. Type of experiment: biochemical. As to conditions: IC50 activity level, read-out: Activity Level. How it is done:
Test compounds were prepared at a concentration of 1.5 mM in DMSO followed by 3-fold dilutions in Greiner […] polypropylene plates. A 1:4 dilution of compounds by 8 μL/well transfer from the polypropylene plates to 24 μL/well Assay Buffer in Costar 3710 384 well black plates was then performed. Kinases (13 μL/well) or Assay Buffer only (background controls; 50 mM HEPES pH 7.6, 1 mM DTT, 10 mM MgCl2, 0.01% Triton X100, 0.01% BSA and 0.1 mM EDTA) were added to Costar 3710 384-well black plates for the HTRF assays (Carna Biosciences) and compound was added from the 1:4 dilution plate. Syk start mix (87.5 μM ATP, 80 nM Substrate Peptide (American Peptide Company 332722) was added and the mixture was incubated at room temperature for 1 hour. Syk Stop Solution (120 mM EDTA in dilution buffer) was then added to the Syk HTRF assay plate and incubated at room temperature on a shaker for 2 minutes. Syk Antibody Mix (4.86 μg/mL DyLight 647 Streptavidin (Pierce 21824); 1 μg/mL Lance Eu-Anti-Phosphotyrosine (PerkinElmer AD0069)) was added to the Syk HTRF assay plate and the mixture was further incubated at room temperature for >4 h. Time resolved fluorescence was read in assay plates on a PerkinElmer EnVision. HTRF assays were performed using 320 nm excitation, 60 μs delay, 665 nm and 615 nm emission. Data was expressed by division of 665 nm by 615 nm emissions.
(TR-FRET usually uses a lanthanide donor and a delayed reading to cut background.)
For the molecule `c1cc(NC2CCCNC2)n2nc(Nc3ccc4c(c3)CNC4)nc2c1` (stereo in doubt) [Example 448, (R)-N^2-(isoindolin-5-yl)-N^5-(piperidin-3-yl)-[1,2,4]triazolo[1,5-a]pyridin-2,5-diamine], the IC50 is 1000 to 10000 nM.
For the molecule `Cc1cccc2nc(Nc3ccc4c(c3)NC(=O)C4(C)C)nn12` [Example 564], the IC50 lay within 0.005 to 250 nM.
Consider `c1ccc(Nc2nc3cccc(Oc4ccccc4)n3n2)cc1` [Example 503, 5-phenoxy-N-phenyl-[1,2,4]triazolo[1,5-a]pyridin-2-amine], for which the IC50 is 1000 to 10000 nM.
Take `CC(CO)Cc1cccc2nc(Nc3ccccc3)nn12` (stereo in doubt) [Example 480, (S)-2-methyl-3-(2-(phenylamino)-[1,2,4]triazolo[1,5-a]pyridin-5-yl)propan-1-ol]: the IC50 was 250 to 500 nM.

The experiment is the same for the next values; noted with them: activity levels A-D, read-out: Activity Level (IC50 in the Syk HTRF assay).
On to `CNC(=O)c1ccc(Nc2nc3cccc(N4CCCCC4)n3n2)cc1` [Example 247, N-methyl-4-(5-(piperidin-1-yl)-[1,2,4]triazolo[1,5-a]pyridin-2-ylamino)benzamide], for which the IC50 fell in the range of 500 to 1000 nM.
Consider `NC(=O)c1cc(Nc2nc3cccc(N[C@H]4CC[C@@H](O)CC4)n3n2)ccn1` [Example 255, cis-4-(5-(4-hydroxycyclohexylamino)-[1,2,4]triazolo[1,5-a]pyridin-2-ylamino)picolinamide], for which the IC50 was 1000 to 10000 nM.
In the case of `Cc1cc(Nc2nc3cccc(N[C@H]4CC[C@@H](O)CC4)n3n2)ccc1F` [Example 320, cis-4-(2-(4-fluoro-3-methylphenylamino)-[1,2,4]triazolo[1,5-a]pyridin-5-ylamino)cyclohexanol], the IC50 is 0.005 to 250 nM.
Regarding `O[C@H]1CC[C@@H](Nc2cccc3nc(Nc4ccccn4)nn23)CC1` [Example 349, cis-4-(2-(pyridin-2-ylamino)-[1,2,4]triazolo[1,5-a]pyridin-5-ylamino)cyclohexanol], the IC50 was 1000 to 10000 nM.
For the molecule `O=C1CN(Cc2cccc3nc(Nc4ccc(C(F)(F)F)cc4)nn23)CN1` [Example 301, 1-((2-(4-(trifluoromethyl)phenylamino)-[1,2,4]triazolo[1,5-a]pyridin-5-yl)methyl)imidazolidin-4-one], the IC50 was 1000 to 10000 nM.
On to `C[C@H](NCc1cccc2nc(Nc3ccc(C(F)(F)F)cc3)nn12)C(N)=O` [Example 222, (S)-2-((2-(4-(trifluoromethyl)phenylamino)-[1,2,4]triazolo[1,5-a]pyridin-5-yl)methylamino)propanamide], for which the IC50 is 1000 to 10000 nM.
On the same count and under the same terms, the same measure for `CC(NCc1cccc2nc(Nc3ccc(C(F)(F)F)cc3)nn12)C(N)=O` (racemic) [Example 233, (±)-2-((2-(4-(trifluoromethyl)phenylamino)-[1,2,4]triazolo[1,5-a]pyridin-5-yl)methylamino)propanamide]: 500 to 1000 nM.
For `FC(F)(F)c1ccc(Nc2nc3cccc(OC4CCCNC4)n3n2)cc1` (stereo in doubt) [Example 361, (R)-5-(piperidin-3-yloxy)-N-(4-(trifluoromethyl)phenyl)-[1,2,4]triazolo[1,5-a]pyridin-2-amine], the IC50 was 1000 to 10000 nM.
Take `OC[C@]1(O)CC[C@@H](Nc2cccc3nc(Nc4ccc(C(F)(F)F)cc4)nn23)CC1` [Example 227, cis-1-(hydroxymethyl)-4-(2-(4-(trifluoromethyl)phenylamino)-[1,2,4]triazolo[1,5-a]pyridin-5-ylamino)cyclohexanol]: the IC50 fell in the range of 0.005 to 250 nM.
Still for that read-out and setting: the figure for `CNC(=O)c1ccc(Nc2nc3cccc(-n4ccnc4)n3n2)cc1` [Example 241, 4-(5-(1H-imidazol-1-yl)-[1,2,4]triazolo[1,5-a]pyridin-2-ylamino)-N-methylbenzamide] is 1000 to 10000 nM; for `O[C@H]1CCC[C@H](Nc2cccc3nc(Nc4ccc(C(F)(F)F)cc4)nn23)C1` (racemic) [Example 373, (±)trans-3-(2-(4-(trifluoromethyl)phenylamino)-[1,2,4]triazolo[1,5-a]pyridin-5-ylamino)cyclohexanol] it is 500 to 1000 nM; for `CNC(=O)c1ccc(Nc2nc3cccc(N4CC[C@H](O)C4)n3n2)cc1` [Example 249, (S)-4-(5-(3-hydroxypyrrolidin-1-yl)-[1,2,4]triazolo[1,5-a]pyridin-2-ylamino)-N-methylbenzamide] it is 500 to 1000 nM.

Staying with this experiment, now noted: read-out: Activity Level (Syk HTRF assay IC50).
Consider `Cc1n[nH]c2cc(Nc3nc4cccc(N(C)CCO)n4n3)ccc12` [Example 190, 2-(methyl(2-(3-methyl-1H-indazol-6-ylamino)-[1,2,4]triazolo[1,5-a]pyridin-5-yl)amino)ethanol], for which the IC50 lay in the range of 0.005 to 250 nM.
As to `Cc1n[nH]c2cc(Nc3nc4cccc(CN5CCCC(F)(F)C5)n4n3)ccc12` [Example 184, 5-((3,3-difluoropiperidin-1-yl)methyl)-N-(3-methyl-1H-indazol-6-yl)-[1,2,4]triazolo[1,5-a]pyridin-2-amine], the IC50 lay in the range of 0.005 to 250 nM.
In the case of `Oc1cccc(-c2cccc3nc(Nc4ccc(N5CCOCC5)cc4)nn23)c1` [compound 32, 3-(2-(4-morpholinophenylamino)-[1,2,4]triazolo[1,5-a]pyridin-5-yl)phenol], the IC50 lay in the range of 0.005 to 250 nM.
Still for that read-out and setting: the same measure for `CC1(C)C(=O)Nc2cc(Nc3nc4cccc(N[C@H]5CC[C@](C)(O)CC5)n4n3)ccc21` [Example 162, trans-6-(5-(4-hydroxy-4-methylcyclohexylamino)-[1,2,4]triazolo[1,5-a]pyridin-2-ylamino)-3,3-dimethylindolin-2-one]: 0.005 to 250 nM.
For `CN(c1cccc2nc(Nc3ccc4c(c3)NC(=O)C4(C)C)nn12)C1CCOCC1` [Example 158, 3,3-dimethyl-6-(5-(methyl(tetrahydro-2H-pyran-4-yl)amino)-[1,2,4]triazolo[1,5-a]pyridin-2-ylamino)indolin-2-one], the IC50 lay within 0.005 to 250 nM.
For the molecule `N#Cc1ccc(-c2cccc3nc(Nc4ccccc4)nn23)cc1` [compound 76, 4-(2-(phenylamino)-[1,2,4]triazolo[1,5-a]pyridin-5-yl)benzonitrile], the IC50 lay in the range of 1000 to 10000 nM.
Regarding `CC1(C)C(=O)Nc2cc(Nc3nc4cccc(N[C@@H]5CCOC5)n4n3)ccc21` [Example 150, (R)-3,3-dimethyl-6-(5-(tetrahydrofuran-4-ylamino)-[1,2,4]triazolo[1,5-a]pyridin-2-ylamino)indolin-2-one], the IC50 lay in the range of 0.005 to 250 nM.
`OCc1nc2ccc(Nc3nc4cccc(N[C@H]5CC[C@@H](O)CC5)n4n3)cc2[nH]1` [Example 195, cis-4-(2-(2-(hydroxymethyl)-1H-benzo[d]imidazol-6-ylamino)-[1,2,4]triazolo[1,5-a]pyridin-5-ylamino)cyclohexanol]: the IC50 was in the range of 0.005 to 250 nM.
Still for that read-out and setting: the figure for `CC1(C)C(=O)Nc2cc(Nc3nc4cccc(N5CCC(O)CC5)n4n3)ccc21` [compound 114, 6-(5-(4-hydroxypiperidin-1-yl)-[1,2,4]triazolo[1,5-a]pyridin-2-ylamino)-3,3-dimethylindolin-2-one] is 0.005 to 250 nM.
Consider `CN1C(=O)C(C)(C)c2ccc(Nc3nc4cccc(N[C@H]5CC[C@@H](O)CC5)n4n3)cc21` [Example 152, cis-6-(5-(4-hydroxycyclohexylamino)-[1,2,4]triazolo[1,5-a]pyridin-2-ylamino)-1,3-3-trimethylindolin-2-one], for which the IC50 lay in the range of 0.005 to 250 nM.
Same read-out and setting: the same measure for `COCCn1nc(C)c2ccc(Nc3nc4cccc(N[C@H]5CC[C@@H](O)CC5)n4n3)cc21` [Example 194, cis-4-(2-(1-(2-methoxyethyl)-3-methyl-1H-indazol-6-ylamino)-[1,2,4]triazolo[1,5-a]pyridin-5-ylamino)cyclohexanol]: 250 to 500 nM.
